Test results as given in patent US10065970B2 (Genentech, Inc., priority 2015, dated 2018).

Target: PI3Kα (alpha) (Homo sapiens (Human), UniProt P42336)
Experiment: p110α (alpha) PI3K Binding Assay (ADP-Glo lipid kinase reaction)
Format: biochemical
Details: PI3K alpha 0.2 nM, ATP 40 μM, PIP2:3PS 50 μM, 120 min, room temperature; Ki by Morrison Equation; read-out: PI3Kα-(alpha) ATP (Ki) micromolar
Protocol: The ability of a compound of the invention to act as an inhibitor of PI3Kα was determined using the methods of Example 901.
PI3K Binding assays are intended for determining the biochemical potency of small molecule PI3K inhibitors. The PI3K lipid kinase reaction is performed in the presence of PIP2:3PS lipid substrate (Promega #V1792) and ATP. Following the termination if the kinase reaction, turnover of ATP to ADP by the phosphorylation of the lipid substrate is detected using the Promega ADP-Glo™ (Promega #V1792) assay. Reactions are carried out using the following conditions:
After 120 minutes of reaction time, the kinase reaction is terminated. Any ATP remaining after the reaction is depleted, leaving only ADP. Then the Kinase Detection Reagent is added to convert ADP to ATP, which is used in a coupled luciferin/luciferase reaction. The luminescent output is measured and is correlated with kinase activity.
All reactions are carried out at room temperature. A 3 μl mixture (1:1) of enzyme/lipid substrate solution is added to a 384 well white assay plate (Perkin Elmer #6007299) containing 50 nl of test compound or DMSO only for untreated controls. The reaction is started by the addition of 2 μl ATP/MgCl2. The kinase reaction buffer contains 50 mM HEPES, 50 mM NaCl, 3 mM MgCl2, 0.01% BSA, 1% DMSO, and enzyme and substrate concentrations as indicated in the above table. The reaction is stopped by the addition of 10 μL ADP-Glo reagent. Plates are read in a Perkin Elmer Envision system using luminescence mode. 10 point dose response curves are generated for each test compound. Ki values for each compound are determined using the Morrison Equation.

Sequence of PI3Kα (alpha) (P42336 whole entry): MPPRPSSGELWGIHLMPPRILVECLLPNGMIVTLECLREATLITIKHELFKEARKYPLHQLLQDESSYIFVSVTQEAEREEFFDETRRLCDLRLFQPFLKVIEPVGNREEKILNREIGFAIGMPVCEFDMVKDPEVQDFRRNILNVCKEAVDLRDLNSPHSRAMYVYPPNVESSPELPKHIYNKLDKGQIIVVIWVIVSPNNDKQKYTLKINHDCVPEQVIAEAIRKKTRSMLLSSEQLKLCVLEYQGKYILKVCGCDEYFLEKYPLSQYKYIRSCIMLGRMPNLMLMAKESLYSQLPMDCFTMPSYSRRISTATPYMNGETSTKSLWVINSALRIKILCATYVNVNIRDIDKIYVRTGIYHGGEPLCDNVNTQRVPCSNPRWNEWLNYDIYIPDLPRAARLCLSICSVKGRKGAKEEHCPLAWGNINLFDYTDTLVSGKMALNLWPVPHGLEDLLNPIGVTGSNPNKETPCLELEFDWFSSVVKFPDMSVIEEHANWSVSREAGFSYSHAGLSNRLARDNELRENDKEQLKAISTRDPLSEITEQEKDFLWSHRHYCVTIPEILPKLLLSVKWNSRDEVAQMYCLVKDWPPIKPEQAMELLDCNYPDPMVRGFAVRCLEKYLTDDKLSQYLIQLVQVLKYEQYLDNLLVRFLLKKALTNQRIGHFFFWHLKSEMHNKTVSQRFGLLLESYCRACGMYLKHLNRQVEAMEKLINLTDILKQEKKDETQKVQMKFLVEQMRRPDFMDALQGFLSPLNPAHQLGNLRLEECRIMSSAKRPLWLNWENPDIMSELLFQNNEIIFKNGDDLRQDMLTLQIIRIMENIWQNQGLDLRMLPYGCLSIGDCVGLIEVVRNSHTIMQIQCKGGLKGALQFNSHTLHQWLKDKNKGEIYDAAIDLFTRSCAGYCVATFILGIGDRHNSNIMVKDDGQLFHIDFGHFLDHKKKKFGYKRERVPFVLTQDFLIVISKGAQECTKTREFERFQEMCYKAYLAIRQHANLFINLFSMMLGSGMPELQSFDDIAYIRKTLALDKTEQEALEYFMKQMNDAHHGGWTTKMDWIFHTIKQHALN
Sequence of PI3Kα (alpha) (P27986 whole entry partner): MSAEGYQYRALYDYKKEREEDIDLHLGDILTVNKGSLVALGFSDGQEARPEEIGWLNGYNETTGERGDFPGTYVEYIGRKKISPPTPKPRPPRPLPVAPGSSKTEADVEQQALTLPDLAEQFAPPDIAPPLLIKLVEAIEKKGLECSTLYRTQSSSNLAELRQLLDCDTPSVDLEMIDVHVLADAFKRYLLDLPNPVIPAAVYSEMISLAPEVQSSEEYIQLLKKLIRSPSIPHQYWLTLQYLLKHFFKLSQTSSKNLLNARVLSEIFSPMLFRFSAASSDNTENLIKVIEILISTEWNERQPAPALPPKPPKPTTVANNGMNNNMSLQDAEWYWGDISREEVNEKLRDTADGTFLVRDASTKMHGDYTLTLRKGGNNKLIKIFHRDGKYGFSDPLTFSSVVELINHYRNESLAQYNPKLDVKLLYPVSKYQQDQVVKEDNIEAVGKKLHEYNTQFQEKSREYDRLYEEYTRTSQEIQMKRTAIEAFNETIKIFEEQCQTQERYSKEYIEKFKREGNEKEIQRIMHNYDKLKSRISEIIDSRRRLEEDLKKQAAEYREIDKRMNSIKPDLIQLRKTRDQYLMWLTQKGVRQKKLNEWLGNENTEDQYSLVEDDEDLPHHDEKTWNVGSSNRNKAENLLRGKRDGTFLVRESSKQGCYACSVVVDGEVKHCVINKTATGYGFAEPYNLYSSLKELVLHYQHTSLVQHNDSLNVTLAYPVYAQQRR

Row | SMILES | Ki [nM]
1 | N#Cc1cccc(-c2nc3cc(N[C@H](C(N)=O)C4CC4)cc4c3n2CCCO4)c1 [Example 118, (S)-2-((1-(3-Cyanophenyl)-8,9-dihydro-7H-6-oxa-2,9a-diazabenzo[cd]azulen-4-yl)amino)-2-cyclopropylacetamide] | 561
2 | NC(=O)[C@@H](Nc1cc2c3c(c1)nc(-c1ccc4ncncc4c1)n3CCCO2)C1CC1 [Example 119, (S)-2-Cyclopropyl-2-((1-(quinazolin-6-yl)-8,9-dihydro-7H-6-oxa-2,9a-diazabenzo[cd]azulen-4-yl)amino)acetamide] | 215
3 | Cc1ccncc1-c1nc2cc(N[C@H](C(N)=O)C3CC3)cc3c2n1CCCO3 [Example 122, (S)-2-Cyclopropyl-2-((1-(4-methylpyridin-3-yl)-8,9-dihydro-7H-6-oxa-2,9a-diazabenzo[cd]azulen-4-yl)amino)acetamide] | 296
4 | Cc1cc(-c2nc3cc(N[C@H](C(N)=O)C4CC4)cc4c3n2CCCO4)nc(CO)n1 [Example 123, (S)-2-Cyclopropyl-2-((1-(2-(hydroxymethyl)-6-methylpyrimidin-4-yl)-8,9-dihydro-7H-6-oxa-2,9a-diazabenzo[cd]azulen-4-yl)amino)acetamide] | 45
5 | NC(=O)[C@@H](Nc1cc2c3c(c1)nc(-c1ccnnc1)n3CCCO2)C1CC1 [Example 125, (S)-2-Cyclopropyl-2-((1-(pyridazin-4-yl)-8,9-dihydro-7H-6-oxa-2,9a-diazabenzo [cd]azulen-4-yl)amino)acetamide] | 221
6 | NC(=O)[C@@H](Nc1cc2c3c(c1)nc(N1CCC(CO)CC1)n3CCCO2)C1CC1 [Example 126, (S)-2-Cyclopropyl-2-[1-(4-hydroxymethylpiperidin-1-yl)-8,9-dihydro-7H-6-oxa-2,9a-diazabenzo[cd]azulen-4-ylamino]acetamide] | 678
7 | NC(=O)[C@@H](Nc1cc2c3c(c1)nc(N1CCCCC1)n3CCCO2)C1CC1 [Example 127, (S)-2-Cyclopropyl-2-(1-piperidin-1-yl-8,9-dihydro-7H-6-oxa-2,9a-diazabenzo[cd]azulen-4-ylamino)acetamide] | 719
8 | COc1ncc(-c2nc3cc(N[C@H](C(N)=O)C4CC4)cc4c3n2CCCO4)cn1 [Example 128, (S)-2-cyclopropyl-2-((1-(2-methoxypyrimidin-5-yl)-8,9-dihydro-7H-6-oxa-2,9a-diazabenzo[cd]azulen-4-yl)amino)acetamide] | 73.5
9 | Cn1nc(-c2nc3cc(N[C@H](C(N)=O)C4CC4)cc4c3n2CCCO4)ccc1=O [Example 129, (S)-2-Cyclopropyl-2-((1-(1-methyl-6-oxo-1,6-dihydropyridazin-3-yl)-8,9-dihydro-7H-6-oxa-2,9a-diazabenzo[cd]azulen-4-yl)amino)acetamide] | 257
10 | NC(=O)[C@@H](Nc1cc2c3c(c1)nc(-c1ccc4c(c1)NC(=O)CO4)n3CCCO2)C1CC1 [Example 131, (S)-2-Cyclopropyl-2-((1-(3-oxo-3,4-dihydro-2H-benzo[b][1,4]oxazin-6-yl)-8,9-dihydro-7H-6-oxa-2,9a-diazabenzo[cd]azulen-4-yl)amino)acetamide] | 821
11 | NC(=O)[C@@H](Nc1cc2c3c(c1)nc(-c1ccc4[nH]ncc4c1)n3CCCO2)C1CC1 [Example 133, (S)-2-((1-(1H-Indazol-5-yl)-8,9-dihydro-7H-6-oxa-2,9a-diazabenzo[cd]azulen-4-yl)amino)-2-cyclopropylacetamide] | 43.4
12 | NC(=O)[C@@H](Nc1cc2c3c(c1)nc(-c1cncnc1)n3CCCO2)C1CC1 [Example 134, (S)-2-Cyclopropyl-2-((1-(pyrimidin-5-yl)-8,9-dihydro-7H-6-oxa-2,9a-diazabenzo[cd]azulen-4-yl)amino)acetamide] | 242
13 | NC(=O)[C@@H](Nc1cc2c3c(c1)nc(-c1cncs1)n3CCCO2)C1CC1 [Example 136, (S)-2-Cyclopropyl-2-((1-(thiazol-5-yl)-8,9-dihydro-7H-6-oxa-2,9a-diazabenzo[cd]azulen-4-yl)amino)acetamide] | 76.4
14 | CS(=O)(=O)c1ccc(-c2nc3cc(N[C@H](C(N)=O)C4CC4)cc4c3n2CCCO4)cc1 [Example 137, (S)-2-Cyclopropyl-2-((1-(4-(methylsulfonyl)phenyl)-8,9-dihydro-7H-6-oxa-2,9a-diazabenzo[cd]azulen-4-yl)amino)acetamide] | 916
15 | C[C@H](Nc1cc2c3c(c1)nc(N1CCC[C@@H](CO)C1)n3CCCO2)C(N)=O [Example 139, (S)-2-[1-((R)-3-Hydroxymethylpiperidin-1-yl)-8,9-dihydro-7H-6-oxa-2,9a-diazabenzo[cd]azulen-4-ylamino]propionamide] | 288
16 | C[C@H](Nc1cc2c3c(c1)nc(N1CCC(CO)CC1)n3CCCO2)C(N)=O [Example 140, (S)-2-[1-(4-Hydroxymethylpiperidin-1-yl)-8,9-dihydro-7H-6-oxa-2,9a-diazabenzo[cd]azulen-4-ylamino]propionamide] | 681
17 | NC(=O)[C@@H](Nc1cc2c3c(c1)nc(N1CCOCC1)n3CCCO2)C1CC1 [Example 141, (S)-2-Cyclopropyl-2-((1-morpholino-8,9-dihydro-7H-6-oxa-2,9a-diazabenzo[cd]azulen-4-yl)amino)acetamide] | 740
18 | NC(=O)[C@@H](Nc1cc2c3c(c1)nc(-c1cccc(OC(F)F)c1)n3CCCO2)C1CC1 [Example 143, (S)-2-Cyclopropyl-2-((1-(3-(difluoromethoxy)phenyl)-8,9-dihydro-7H-6-oxa-2,9a-diazabenzo[cd]azulen-4-yl)amino)acetamide] | 187
19 | COc1ccc(-c2nc3cc(N[C@H](C(N)=O)C4CC4)cc4c3n2CCCO4)c(F)c1 [Example 144, (S)-2-Cyclopropyl-2-((1-(2-fluoro-4-methoxyphenyl)-8,9-dihydro-7H-6-oxa-2,9a-diazabenzo[cd]azulen-4-yl)amino)acetamide] | 340
20 | NC(=O)[C@@H](Nc1cc2c3c(c1)nc(-c1ccc(F)cc1F)n3CCCO2)C1CC1 [Example 145, (S)-2-Cyclopropyl-2-((1-(2,4-difluorophenyl)-8,9-dihydro-7H-6-oxa-2,9a-diazabenzo[cd]azulen-4-yl)amino)acetamide] | 382

Compounds with a lower Ki, results first:

Row | Ki [nM] | SMILES
21 | 36.7 | NC(=O)[C@@H](Nc1cc2c3c(c1)nc(-c1ccc4c(c1)C(=O)NC4)n3CCCO2)C1CC1 [Example 115, (S)-2-Cyclopropyl-2-((1-(3-oxoisoindolin-5-yl)-8,9-dihydro-7H-6-oxa-2,9a-diazabenzo[cd]azulen-4-yl)amino)acetamide]
22 | 22.9 | NC(=O)[C@@H](Nc1cc2c3c(c1)nc(-c1ccc4c(c1)OCCO4)n3CCCO2)C1CC1 [Example 138, (S)-2-Cyclopropyl-2-((1-(2,3-dihydrobenzo[b][1,4]dioxin-6-yl)-8,9-dihydro-7H-6-oxa-2,9a-diazabenzo[cd]azulen-4-yl)amino)acetamide]
23 | 19 | NC(=O)[C@@H](Nc1cc2c3c(c1)nc(-c1ccc4cncnc4c1)n3CCCO2)C1CC1 [Example 116, (S)-2-Cyclopropyl-2-((1-(quinazolin-7-yl)-8,9-dihydro-7H-6-oxa-2,9a-diazabenzo [cd]azulen-4-yl)amino) acetamide]
24 | 7.67 | COc1ncc(-c2nc3cc(N[C@H](C(N)=O)C4CC4)cc4c3n2CCCO4)cc1Cl [Example 130, (S)-2-((1-(5-Chloro-6-methoxypyridin-3-yl)-8,9-dihydro-7H-6-oxa-2,9a-diazabenzo[cd]azulen-4-yl)amino)-2-cyclopropylacetamide]
25 | 5.34 | NC(=O)[C@@H](Nc1cc2c3c(c1)nc(-c1ccc4nc(N)ncc4c1)n3CCCO2)C1CC1 [Example 120]
26 | 1.6 | NC(=O)[C@@H](Nc1cc2c3c(c1)nc(-c1ccn4ncnc4c1)n3CCCO2)C1CC1 [Example 132, (S)-2-((1-([1,2,4]Triazolo[1,5-a]pyridin-7-yl)-8,9-dihydro-7H-6-oxa-2,9a-diazabenzo[cd]azulen-4-yl)amino)-2-cyclopropylacetamide]
27 | 1.18 | NC(=O)[C@@H](Nc1cc2c3c(c1)nc(-c1ccc4nccnc4c1)n3CCCO2)C1CC1 [Example 117, (S)-2-Cyclopropyl-2-((1-(quinoxalin-6-yl)-8,9-dihydro-7H-6-oxa-2,9a-diazabenzo[cd]azulen-4-yl)amino)acetamide]
28 | 0.117 | CC(C)(C(N)=O)n1cc(-c2cc3c4c(c2)nc(-c2ccc5oc(N)nc5c2)n4CCCO3)cn1 [Example 124, 2-(4-(1-(2-Aminobenzo[d]oxazol-5-yl)-8,9-dihydro-7H-6-oxa-2,9a-diazabenzo[cd]azulen-4-yl)-1H-pyrazol-1-yl)-2-methylpropanamide]
29 | 0.076 | NC(=O)[C@@H](Nc1cc2c3c(c1)nc(-c1ccc4oc(N)nc4c1)n3CCCO2)C1CC1 [Example 135, (S)-2-((1-(2-Aminobenzo[d]oxazol-5-yl)-8,9-dihydro-7H-6-oxa-2,9a-diazabenzo[cd]azulen-4-yl)amino)-2-cyclopropylacetamide]
